Results published in patent US20240238363A1 (priority 2020, published 2024).

Key:
CXCR4 [1] = conditions: in vivo; cited from earlier work
CXCR4 [2] = biological target: CXCR4 (Mus musculus, UniProt P70658); conditions: FIG. 2A; CXCR4 tropic gp120; cultured mouse hippocampal neurons
Description: (§1) Aβd/t was isolated from medium of cultured 7PA2 cells, a CHO cell line expressing a form of human APP found in Familial AD. The amount of ABd/t is quantified by Western blot with standards of synthetic Aβ monomer. Neuronal cultures, fixation, permeabilization, blocking and immunostaining is performed starting with E16.5 mouse hippocampal neurons by common methods in broad use.
(§2) Images of fixed neurons immunostained for cofilin, growth cones and nuclei captured across the entire coverslip are exported to ImageJ. Macro functions are applied to set local threshold and shape/size segmentation for both the cofilin and growth cone antibodies. Cofilin stained material that is not within neurites is eliminated. Results are reported as rods/nucleus, number of rods per area, rods as percent of total area, or, if NeuN stained or identified morphologically, rods per neuron.

[3] = test system: dendritic spine morphology, dendritic arborization and functional deficits; conditions: animal model of HIV cognitive decline; cited from earlier work
[4] = test system: cognitive deficits in HAND; conditions: phase 2 human trials and brain scans; cited from earlier work
[5] = test system: cofilin rods in cultured mouse hippocampal neurons; assay type: cell-based
Description: as §1, §2
(§3) Amyloid beta (Aβ) trimer was added to pure cultures of mouse hippocampal neurons, devoid of immune cells, microglia, and their secreted inflammatory mediators to evaluate actin dynamics and cofilin-rod formation. […] The relevance is that rod pathology leads to synapse loss in people that correlates with dementia.

[6] = test system: growth cones in pure cultures of mouse hippocampal neurons; conditions: FIG. 5; Aβ trimer-treated neurons, 2G13 antibody stain
Description: as §1, §2, §3

CCR5 [7] = biological target: T1, CCR5 (Mus musculus, UniProt P51682); conditions: pharmacologic blockade of CCR5; cited from earlier work
T1 sequence (P51682 whole entry): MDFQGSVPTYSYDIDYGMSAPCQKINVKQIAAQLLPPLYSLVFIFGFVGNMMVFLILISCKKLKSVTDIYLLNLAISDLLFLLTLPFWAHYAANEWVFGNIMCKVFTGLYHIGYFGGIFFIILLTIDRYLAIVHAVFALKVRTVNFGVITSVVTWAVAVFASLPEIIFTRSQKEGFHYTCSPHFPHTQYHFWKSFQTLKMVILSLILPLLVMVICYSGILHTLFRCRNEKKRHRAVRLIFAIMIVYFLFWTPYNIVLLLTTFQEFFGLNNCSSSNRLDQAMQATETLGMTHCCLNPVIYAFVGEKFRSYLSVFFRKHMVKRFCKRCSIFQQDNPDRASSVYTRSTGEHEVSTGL

CCR5 [8] = biological target: T1, CCR5; conditions: FIG. 2A; CCR5 tropic gp120; cultured mouse hippocampal neurons
Description: as §1, §2

CXCR4 (Mus musculus, UniProt P70658), sequence (P70658 whole entry): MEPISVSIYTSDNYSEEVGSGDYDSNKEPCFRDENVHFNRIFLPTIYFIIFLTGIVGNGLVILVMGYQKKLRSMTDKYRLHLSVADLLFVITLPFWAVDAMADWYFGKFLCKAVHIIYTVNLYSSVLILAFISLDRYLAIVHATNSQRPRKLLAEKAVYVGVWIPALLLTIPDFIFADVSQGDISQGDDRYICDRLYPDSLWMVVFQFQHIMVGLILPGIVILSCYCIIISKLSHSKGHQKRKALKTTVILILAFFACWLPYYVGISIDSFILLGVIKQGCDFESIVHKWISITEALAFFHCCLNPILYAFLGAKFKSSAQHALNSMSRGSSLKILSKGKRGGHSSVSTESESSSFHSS

c1cc(CN2CCCNCCNCCCNCC2)ccc1CN1CCCNCCNCCCNCC1 [AMD3100]
recovery after traumatic brain injury (CXCR4 [1]): improved recovery
inhibition of gp120-induced cofilin-rod formation through CXCR4 (CXCR4 [2]): inhibited

Dala1-peptide T-amide [DAPTA]
dendritic spine morphology, dendritic arborization and functional deficits [3]: protection of dendritic spine morphology, expansion of dendritic arborization and reversal of functional deficits
cognitive deficits in HAND [4]: able to reverse cognitive deficits

all-D-ASTTTNYT [RAP-310]
block Aβ-induced formation of cofilin rods (percent of neurons expressing cofilin-rods) [5]: block
block TNF-induced formation of cofilin rods [5]: block

all-D-TTNYT [RAP-103]
area within the neurons occupied by cofilin-rods, caused by amyloid beta (Aβ) [5]: reducing
area within the neurons occupied by cofilin-rods, caused by pre-formed fibrils (PPF) of alpha-synuclein [5]: reducing
block Aβ-induced formation of cofilin rods (percent of neurons expressing cofilin-rods) [5]: block
block TNF-induced formation of cofilin rods [5]: block
cofilin rod-like structures at the ends of dendrites [5]: eliminated
growth cone formation [6]: promote growth cone formation

maraviroc
early pathology of synapse loss (cofilin-rod formation) induced by beta-amyloid (Aβ-trimer/dimer) ([5]; FIG. 2B, blocking neuronal CCR5): can be reversed
dendritic spines and neurite cortical projections after stroke and traumatic brain injury (CCR5 [7]): preservation of dendritic spines and new patterns of neurite cortical projections
inhibition of gp120-induced cofilin-rod formation through CCR5 (CCR5 [8]): inhibited
